Measurements taken from PubChem BioAssay AID248 (DTP/NCI, 2004).
“And” between values parts separate entries of the source, which are not always exact repeats. Equal values may be shown once. Inconclusive results and toxic doses are left out.

System: L1210 leukemia ip in BDF1 mice, survival T/C
Test: NCI In Vivo Anticancer Drug Screen. Data for tumor model L1210 Leukemia (intraperitoneal) in B6D2F1 (BDF1) mice
Conditions: endpoint: mean survival time, higher = longer survival
Method in brief: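 Tumor cells were implanted, animals were treated, and survival was followed. The result divides the treated measurement by the vehicle-control measurement.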

[1] = dose: 50.0 mg/kg/injection, schedule: Q01DX009 (ip), vehicle: saline with Tween-80
[2] = dose: 100.0 mg/kg/injection, schedule: Q01DX009 (ip), vehicle: saline with Tween-80
[3] = dose: 200.0 mg/kg/injection, schedule: Q01DX009 (ip), vehicle: saline with Tween-80
[4] = dose: 100.0 mg/kg/injection, schedule: Q01DX001 (ip), vehicle: saline
[5] = dose: 200.0 mg/kg/injection, schedule: Q01DX001 (ip), vehicle: saline
[6] = dose: 400.0 mg/kg/injection, schedule: Q01DX001 (ip), vehicle: saline
[7] = dose: 200.0 mg/kg/injection, schedule: Q01DX009 (ip), vehicle: saline
[8] = dose: 12.5 mg/kg/injection, schedule: Q04DX002 (ip), vehicle: Klucel (hydroxypropylcellulose) (HPC)
[9] = dose: 25.0 mg/kg/injection, schedule: Q04DX002 (ip), vehicle: Klucel (hydroxypropylcellulose) (HPC)
[10] = dose: 100.0 mg/kg/injection, schedule: Q04DX002 (ip), vehicle: Klucel (hydroxypropylcellulose) (HPC)
[11] = dose: 200.0 mg/kg/injection, schedule: Q04DX002 (ip), vehicle: Klucel (hydroxypropylcellulose) (HPC)
[12] = dose: 400.0 mg/kg/injection, schedule: Q04DX002 (ip), vehicle: Klucel (hydroxypropylcellulose) (HPC)
[13] = dose: 50.0 mg/kg/injection, schedule: Q01DX009 (ip), vehicle: Klucel (hydroxypropylcellulose) (HPC)
[14] = dose: 100.0 mg/kg/injection, schedule: Q01DX009 (ip), vehicle: Klucel (hydroxypropylcellulose) (HPC)
[15] = dose: 100.0 mg/kg/injection, schedule: Q04DX003 (ip), vehicle: Klucel (hydroxypropylcellulose) (HPC)

O=S(=O)(O)c1ccc(CCCCCCl)cc1
T/C (dose: 100.0 mg/kg/injection, schedule: Q01DX009 (ip), vehicle: saline sonified): 107 % of control
T/C (dose: 100.0 mg/kg/injection, schedule: Q04DX003 (ip), vehicle: saline): 95 % of control
T/C (dose: 200.0 mg/kg/injection, schedule: Q01DX009 (ip), vehicle: saline sonified): 98 % of control
T/C (dose: 200.0 mg/kg/injection, schedule: Q04DX003 (ip), vehicle: saline): 100 % of control
T/C (dose: 400.0 mg/kg/injection, schedule: Q01DX009 (ip), vehicle: saline sonified): 101 % of control
T/C (dose: 400.0 mg/kg/injection, schedule: Q04DX003 (ip), vehicle: saline): 96 % of control

N=C(N)c1ccc(OCCCCCCOc2ccc(C(=N)N)cc2)cc1
T/C (dose: 5.0 mg/kg/injection, schedule: Q01DX001 (ip), vehicle: saline): 100 % of control
T/C (dose: 10.0 mg/kg/injection, schedule: Q01DX001 (ip), vehicle: saline): 100 % of control
T/C (dose: 20.0 mg/kg/injection, schedule: Q01DX001 (ip), vehicle: saline): 103 % of control
T/C (dose: 40.0 mg/kg/injection, schedule: Q01DX001 (ip), vehicle: saline): 101 % of control
T/C (dose: 80.0 mg/kg/injection, schedule: Q01DX001 (ip), vehicle: saline): 92 % of control

O=C(O)/C=C/C(=O)Nc1ccc(N=Nc2ccccc2)cc1
T/C [1]: 101 % of control
T/C [2]: 92 % of control
T/C [3]: 89 % of control

N#CCC[N+]1([O-])CCCC1C(=O)O (stereo not drawn)
T/C [4]: 103 % of control
T/C [5]: 101 % of control
T/C [6]: 103 % of control

C/C=C/C1OCCO1
T/C (dose: 100.0 mg/kg/injection, schedule: Q01DX009 (ip), vehicle: acetone): 92 % of control

NC(CSC(c1ccccc1)(c1ccccc1)c1ccc(C(=O)O)cc1)C(=O)O (stereo not drawn)
T/C (dose: 12.5 mg/kg/injection, schedule: Q01DX009 (ip), vehicle: water): 106 % of control
T/C (dose: 25.0 mg/kg/injection, schedule: Q01DX009 (ip), vehicle: water): 102 % of control and 103 % of control
T/C (dose: 50.0 mg/kg/injection, schedule: Q01DX009 (ip), vehicle: water): 103 % of control and 100 % of control
T/C (dose: 100.0 mg/kg/injection, schedule: Q01DX009 (ip), vehicle: water): 101 % of control and 108 % of control
T/C (dose: 200.0 mg/kg/injection, schedule: Q01DX009 (ip), vehicle: water): 102 % of control
T/C (dose: 400.0 mg/kg/injection, schedule: Q01DX009 (ip), vehicle: water): 97 % of control and 102 % of control

CNCc1cccc2ccccc12
T/C (dose: 75.0 mg/kg/injection, schedule: Q01DX001 (ip), vehicle: carboxymethylcellulose (CMC)): 101 % of control
T/C (dose: 150.0 mg/kg/injection, schedule: Q01DX001 (ip), vehicle: carboxymethylcellulose (CMC)): 101 % of control
T/C (dose: 300.0 mg/kg/injection, schedule: Q01DX001 (ip), vehicle: carboxymethylcellulose (CMC)): 107 % of control

COC(=O)c1cn[nH]c1/N=N/N(C)C
T/C (dose: 25.0 mg/kg/injection, schedule: Q01DX009 (ip), vehicle: other): 120 % of control
T/C (dose: 58.0 mg/kg/injection, schedule: Q01DX009 (ip), vehicle: other): 156 % of control
T/C (dose: 88.0 mg/kg/injection, schedule: Q01DX009 (ip), vehicle: other): 163 % of control
T/C [4]: 107 % of control
T/C (dose: 133.0 mg/kg/injection, schedule: Q01DX009 (ip), vehicle: saline): 155 % of control
T/C [5]: 120 % of control
T/C [7]: 156 % of control
T/C [6]: 122 % of control

O/N=C/CCCC/C=N/O
T/C [1]: 91 % of control
T/C [2]: 91 % of control
T/C [3]: 91 % of control

O=C(Nc1cccc(C(F)(F)F)c1)Nc1ccc2sc(=S)[nH]c2c1
T/C (dose: 6.25 mg/kg/injection, schedule: Q01DX009 (ip), vehicle: saline with Tween-80): 95 % of control
T/C (dose: 12.5 mg/kg/injection, schedule: Q01DX009 (ip), vehicle: saline with Tween-80): 93 % of control
T/C (dose: 25.0 mg/kg/injection, schedule: Q01DX009 (ip), vehicle: saline with Tween-80): 93 % of control
T/C [1]: 86 % of control
T/C [2]: 86 % of control
T/C (dose: 400.0 mg/kg/injection, schedule: Q01DX009 (ip), vehicle: saline with Tween-80): 95 % of control

Cc1ccc(S(=O)(=O)NC(=O)NCCCOC(C)C)cc1
T/C (dose: 100.0 mg/kg/injection, schedule: Q04DX003 (ip), vehicle: saline with Tween-80): 98 % of control
T/C (dose: 200.0 mg/kg/injection, schedule: Q04DX003 (ip), vehicle: saline with Tween-80): 94 % of control
T/C (dose: 400.0 mg/kg/injection, schedule: Q04DX003 (ip), vehicle: saline with Tween-80): 96 % of control

CC(=O)Nc1ccc(S(=O)(=O)c2ccc(N)cc2)cc1
T/C (dose: 12.5 mg/kg/injection, schedule: Q04DX002 (ip), vehicle: saline with Tween-80): 105 % of control
T/C (dose: 25.0 mg/kg/injection, schedule: Q04DX002 (ip), vehicle: saline with Tween-80): 109 % of control and 90 % of control
T/C (dose: 50.0 mg/kg/injection, schedule: Q04DX002 (ip), vehicle: saline with Tween-80): 97 % of control
T/C (dose: 100.0 mg/kg/injection, schedule: Q04DX002 (ip), vehicle: saline with Tween-80): 97 % of control and 102 % of control
T/C (dose: 200.0 mg/kg/injection, schedule: Q04DX002 (ip), vehicle: saline with Tween-80): 109 % of control

Cc1ccccc1SC(Sc1ccccc1C)(Sc1ccccc1C)Sc1ccccc1C
T/C (dose: 100.0 mg/kg/injection, schedule: Q01DX001 (ip), vehicle: Klucel (hydroxypropylcellulose) (HPC)): 98 % of control
T/C (dose: 200.0 mg/kg/injection, schedule: Q01DX001 (ip), vehicle: Klucel (hydroxypropylcellulose) (HPC)): 88 % of control
T/C (dose: 400.0 mg/kg/injection, schedule: Q01DX001 (ip), vehicle: Klucel (hydroxypropylcellulose) (HPC)): 95 % of control

O=C1Nc2ccccc2C1Cc1cc2c(nn1)[nH]c1ccccc12 (stereo not drawn)
T/C [8]: 95 % of control
T/C [9]: 106 % of control
T/C (dose: 50.0 mg/kg/injection, schedule: Q04DX002 (ip), vehicle: Klucel (hydroxypropylcellulose) (HPC)): 103 % of control
T/C [10]: 122 % of control
T/C [11]: 96 % of control
T/C [12]: 92 % of control

O=C1C2C(C(=O)N1c1ccccc1)C1c3ccccc3C2C2CCCCN21 (stereo not drawn)
T/C (dose: 25.0 mg/kg/injection, schedule: Q01DX009 (ip), vehicle: Klucel (hydroxypropylcellulose) (HPC)): 102 % of control
T/C [13]: 105 % of control
T/C [14]: 92 % of control
T/C [15]: 92 % of control

NC(=O)NC1C(c2ccccc2)=NOC1C(N)=O (stereo not drawn)
T/C (dose: 25.0 mg/kg/injection, schedule: Q04DX003 (ip), vehicle: Klucel (hydroxypropylcellulose) (HPC)): 94 % of control
T/C [13]: 88 % of control
T/C (dose: 50.0 mg/kg/injection, schedule: Q04DX003 (ip), vehicle: Klucel (hydroxypropylcellulose) (HPC)): 105 % of control
T/C [14]: 93 % of control
T/C [15]: 96 % of control

NC(=S)NCC12CC3CC(CC(C3)C1)C2
T/C (dose: 3.0 mg/kg/injection, schedule: Q04DX002 (ip), vehicle: Klucel (hydroxypropylcellulose) (HPC)): 101 % of control and 114 % of control
T/C (dose: 6.0 mg/kg/injection, schedule: Q04DX002 (ip), vehicle: Klucel (hydroxypropylcellulose) (HPC)): 106 % of control and 120 % of control
T/C (dose: 12.0 mg/kg/injection, schedule: Q04DX002 (ip), vehicle: Klucel (hydroxypropylcellulose) (HPC)): 112 % of control
T/C [8]: 105 % of control
T/C [9]: 101 % of control

CNC(=O)NCC1OC(OC2(CO)OC(CNC(=O)NC)C(O)C2O)C(O)C(O)C1O (stereo not drawn)
T/C (dose: 50.0 mg/kg/injection, schedule: Q01DX009 (ip), vehicle: saline): 91 % of control
T/C (dose: 100.0 mg/kg/injection, schedule: Q01DX009 (ip), vehicle: saline): 98 % of control
T/C [7]: 98 % of control

N#CC(C#N)=C(C#N)C#N
T/C (dose: 3.13 mg/kg/injection, schedule: Q01DX009 (ip), vehicle: Klucel (hydroxypropylcellulose) (HPC)): 95 % of control
T/C (dose: 6.25 mg/kg/injection, schedule: Q01DX009 (ip), vehicle: Klucel (hydroxypropylcellulose) (HPC)): 91 % of control

CCCCCCCCCCCC(=O)NC(=S)Nc1cccc(O)c1
T/C [10]: 104 % of control
T/C [11]: 87 % of control
T/C [12]: 104 % of control
